Earlier results in patent US20240264159A1 (priority 2021, published 2024).

Test system: SARS-CoV-2
Settings: Bewley et al., 2021; cited from earlier work

## heparin
  inhibition of SARS-CoV-2 entry into cells: inhibit SARS-CoV-2 entry into cells
